Data: patent publication EP4717275A1, “ANTI-LUNG CANCER COMBINED DRUG AND USE THEREOF” (Gunagdong Yinzhu Pharmaceutical Technology Co., Ltd, priority 2023, dated 2024)
Where “and” joins values, the source holds several entries; their conditions need not be identical. Equal values may be shown once. Read-outs that look alike come from different tables or passages of the source. Marks after values point to notes of the source that are not given here.

What was measured:
[1] = test system: human lung cancer NCI-H2228 xenografts; test: Therapeutic effect in vivo on NCI-H2228 xenografts in nude mice; design: species or system BALB/c Nude mice; settings: PO
Method: (§1) BALB/c Nude mice, female, 8-10 weeks old, 18-20g. The variation of the body weight is ±20% around average body weight. 80 mice were inoculated and 60 mice were grouped.
Table 9 Experimental design of therapeutic effect of the drugs in vivo
NCI-H2228 cells were cultured in RPMI 1640 medium supplemented with 10% FBS and maintained in a 37°C, 5% CO2 humidified incubator.
Log-phase NCI-H2228 cells were harvested, resuspended in RPMI 1640 basal medium containing 50% Matrigel, and adjusted to a concentration of 2 × 10^7 cells/mL. Under aseptic conditions, 0.1 mL of the cell suspension was injected subcutaneously into the right flank of mice at a concentration of 2 × 10^6 cells/0.1 mL/mouse.
When the mean tumor volume reached approximately 150 mm^3, animals were randomly grouped based on tumor volume, ensuring inter-group tumor volume variation was less than 10% of the mean.
(§2) The grouping day was designated as Day 0, and administration commenced according to animal body weight.
(§3) The same as the therapeutic effect evaluation experiments for Examples 1-2 and Comparative Examples 1-3.

[2] = test system: NCI-H2228 cell; test: CCK8 proliferation assay with combination index analysis; format: cell-based, human; settings: Alectinib alone
Method: CCK8 method was used to evaluate the effect of the drugs towards proliferation of lung cancer cell line (NCI-H2228 cell). The cellular viability with different concentration of drug was assayed and the 50% inhibitory concentration was calculated.
Emerge NCI-H2228 cells (purchased from American Type Culture Collection (ATCC, Manassas, VA, USA)) from liquid nitrogen and thaw in a 37°C water bath. After thawing, culture cells in 1640 medium.
When cell density reached 90% confluence in culture medium, cells were digested with 0.25% trypsin and resuspended. After cell growth stabilized, cells in the logarithmic growth phase were harvested and counted using a cell counter and it was ensured that viability exceeded 85% for all cell lines.
Adjust cell concentration by diluting with culture medium. Add 100 µL of cell suspension to a 96-well plate to achieve a density of 3000 cells/well. Add 100 µL of PBS buffer to the wells around the cell-seeded wells.
Incubate the 96-well plate at 37°C, 5% CO2, and 95% humidity overnight.
Remove the cell culture plate from the incubator, aspirate the culture medium, and add the prepared drug-containing medium. Incubate at 37°C, 5% CO2, and 95% humidity for 72 hours.
Add 10 µL of CCK-8 solution to each well of the 96-well plate. Incubate the plate in the cell culture incubator for 1.5 hours. Measure the absorbance at 450 nm using a microplate reader.
Analyze data using GraphPad Prism 5.0 software. Fit the data using nonlinear S-curve regression to generate a dose-response curve and calculate the IC50 value. [formula]
The analysis of the combination index of the compound was performed using the median effect principle. The formula for the combination index of two compounds is: CI = (D)1/(Dx)1 + (D)2/(Dx)2 [formula]
Where: • (D)1---- The concentration of Compound 1 when compound 1 was used with another compound and the effect X was generated; • (D)2---- The concentration of Compound 2 when compound 2 was used with another compound and the effect X was generated; • (Dx)1---- The concentration of Compound 1 when compound 1 was used alone and the effect X was generated; • (Dx)2---- The concentration of Compound 2 when compound 2 was used alone and the effect X was generated.
The CI value enables quantitative assessment of the nature and strength of interactions between different compounds (Table 2). Interaction strength is measured using the weighted average CI (CIwt), calculated by the formula: CIwt = (CI50+2CI75+3CI90+4CI95)/10 [formula]
Where: • CI50 ---- CI value at EC50 (concentration achieving 50% effect) • CI75, CI90, and CI95 follow the same principle, representing the CI values at EC75, EC90, and EC95, respectively.
Evaluation of the combination effect: CI value is used to evaluate the combination effect, and the judgment method is shown in Table 7. Table 7 Judgment criteria of the results

[3] = Animal body weight, fatality and toxicity observation in the NCI-H2228 xenograft study; format: in vivo, BALB/c Nude mice
Text: as §1, §2, §3

[4] = test system: human lung cancer NCI-H1975 xenografts; test: Therapeutic effect in vivo on NCI-H1975 xenografts in nude mice; design: species or system BALB/c Nude mice; settings: PO
Method: BALB/c Nude mice, female, 8-10 weeks old, 18-20g. […] Table 2 Experimental design of therapeutic effect of the drugs in vivo […] NCI-H1975 cells were cultured in RPMI 1640 medium supplemented with 10% FBS and maintained in a 37°C, 5% CO2 humidified incubator. Log-phase NCI-H1975 cells were harvested, resuspended in RPMI 1640 basal medium containing 50% Matrigel, and adjusted to a concentration of 2 × 10^7 cells/mL. Under aseptic conditions, 0.1 mL of the cell suspension was injected subcutaneously into the right flank of mice at a concentration of 2 × 10^6 cells/0.1 mL/mouse. […] The grouping day was designated as Day 0, and administration commenced according to animal body weight. […] Animal body weight and tumor volume were measured twice weekly throughout the experiment. Tumor length and width were measured using a digital caliper, with tumor volume estimated from these measurements. After the final weighing on Day 21, remaining animals were euthanized with CO2. Tumors were weighed, photographed, and the experiment concluded. […] Tumor growth inhibition rate (%TGITV) is calculated as: […] Relative Tumor Volume (RTV) is calculated as Vt/V0, where V0 is the tumor volume at grouping and Vt is the tumor volume at each measurement. Relative Tumor Growth Rate (%T/CRTV) is calculated as TRTV/CRTV × 100%, where TRTV is the RTV of the treatment group and CRTV is the RTV of the negative control group. Tumor growth inhibition rate (%TGITW) is calculated as: ([…] × 100%, where TWc is the average tumor weight in the negative control group and TWT is the average tumor weight in the treatment group. […] Drug-related animal mortality exceeding 20% indicates severe toxicity at that dose. All experimental data in this study are expressed as Mean ± SEM. The evaluation of the combination index (CI) of drugs relies on the following equation: […]), wherein E(A+B) is the inhibition rate of combination drug, EA and EB is the inhibition rate of drug A and drug B respectively. E(A+B) in the equation represents 'measured synergistic effect' and (EA+EB-EA×EB) is 'expected synergistic effect'. CI=0.85-1.15 indicates a mere addition of the effect of two drugs, >1.15 indicates enhancement (or synergy), and <0.85 indicates antagonism. • Combination index of tumor growth inhibition: CAI, 40mg/kg + AZD9291, 1mg/kg: 1.27; […] CAI, 40mg/kg + AZD9291, 1mg/kg: 1.20; […]

[5] = format: in vivo
Method: as §1, §2
Animal body weight and tumor volume were measured twice weekly throughout the experiment. Tumor length and width were measured using a digital caliper, with tumor volume estimated from these measurements.
Clinical observations were recorded daily to assess overall health status, weight abnormalities, behavioral changes, and other treatment-related adverse reactions.
In accordance with animal welfare regulations, animals meeting any of the following criteria during the study were removed from the experimental group and euthanized: 1. Body weight loss exceeding 20% compared to Day 0 (BWL ≥ 20%); 2. Severe adverse reactions such as blindness or paralysis; 3. Tumor volume exceeding 2000 mm^3; 4.
The animal body weight change rate (%BWC) is calculated as: (BWt - BW0) / BW0 × 100%, where BWt is the animal body weight at each measurement and BW0 is the animal body weight at grouping.
According to China's NMPA Technical Guidance Principles for Non-clinical Studies of Cytotoxic Antineoplastic Drugs (November 2006), %T/CRTV ≤ 40% and statistically significant P < 0.05 indicate efficacy. Drug-related animal mortality exceeding 20% indicates severe toxicity at that dose.
All experimental data in this study are expressed as Mean ± SEM.

[6] = %TGITV from tumor volume vs control, QD×21
[7] = %TGITW from tumor weight vs control, QD×21

## CCc1cc2c(cc1N1CCC(N3CCOCC3)CC1)C(C)(C)c1[nH]c3cc(C#N)ccc3c1C2=O [Alectinib]
[1]; %T/CRTV, QD×21
  Relative tumor proliferation rate(%) Day 21: 59.77%
[1]; [6]
  Tumor growth inhibition rate(%) Day 21: 41.23%
[1]; [7]
  Tumor inhibition rate(%) Day 21: 49.14%
[1]; QD×21, dose per group
  Tumor volume (mm^3,Mean±SEM) Day 21: 863.95± 98.37* mm^3
[1]; QD×21, listed as Comparative Example 4
  Tumor weight (g,Mean±SEM) Day 21: 0.444 ± 0.049 g
[1]; RTV = Vt/V0, Mean ± SEM, QD×21
  Relative tumor volume Day 21: 5.23± 0.32
[2]; single plates 1-3, 72 hours, read-out: IC50 (Alectinib)
  IC50: 0.471 µM and 0.546 µM
[2]; Homo sapiens, NCI-H2228, 72 h, average of 3 plates, read-out: IC50 (Alectinib)
  IC50: 0.527 µM
[2]; Homo sapiens, NCI-H2228, 72 h, single plates 1-3, read-out: IC50 (Alectinib)
  IC50: 0.563 µM
[3]; dead/total animals at Day 21, NCI-H2228 study, PO, QD×21
  Fatality: 0/10 (Day 21)
[3]; mouse, in vivo
  inhibitory effect on animal weight gain: slight inhibition effect on animal body weight
[3]; mouse, in vivo, po
  Average body weight (g, Mean ± SEM) Day 0: 22.48 ± 0.33 g
  Average body weight (g, Mean ± SEM) Day 21: 22.20 ± 0.41 g
  Body weight change Day 21 vs Day 0 (g, in brackets): -0.28 g
  Body weight change rate Day 21 vs Day 0: -1.13%

## C=CC(=O)Nc1cc(Nc2nccc(-c3cn(C)c4ccccc34)n2)c(OC)cc1N(C)CCN(C)C [Comparative Example 1, osimertinib]
[4]; %T/CRTV, QD×21
  Relative tumor proliferation rate(%) Day 21: 81.08%
[4]; [6]
  Tumor growth inhibition rate(%) Day 21: 21.02%
[4]; [7]
  Tumor inhibition rate(%) Day 21: 14.73%
[4]; QD×21
  Tumor weight (g,Mean±SEM) Day 21: 1.401 ± 0.212 g
[4]; QD×21, dose per group
  Tumor volume (mm^3,Mean±SEM) Day 21: 1394.40 ±181.52 mm^3
[4]; RTV = Vt/V0, Mean ± SEM, QD×21
  Relative tumor volume Day 21: 8.74 ± 0.73
[5]; dead/total animals at Day 21, NCI-H1975 study, PO, QD×21
  Fatality: 0/10 (Day 21)
[5]; mouse, in vivo, po
  Average body weight (g, Mean ± SEM) Day 0: 19.47 ± 0.28 g
  Average body weight (g, Mean ± SEM) Day 21: 21.46 ± 0.42 g
  Body weight change Day 21 vs Day 0 (g, in brackets): 1.99 g
  Body weight change rate Day 21 vs Day 0: 10.15%
